# According to patent US20240376099A1, “COMPOUNDS AND COMPOSITIONS AS INHIBITORS OF ENDOSOMAL TOLL-LIKE RECEPTORS” (Novartis AG, priority 2016, published 2024):
# Biological target: T1, TLR8 (Homo sapiens, UniProt Q9NR97)
# T1 sequence (Q9NR97 27-1041): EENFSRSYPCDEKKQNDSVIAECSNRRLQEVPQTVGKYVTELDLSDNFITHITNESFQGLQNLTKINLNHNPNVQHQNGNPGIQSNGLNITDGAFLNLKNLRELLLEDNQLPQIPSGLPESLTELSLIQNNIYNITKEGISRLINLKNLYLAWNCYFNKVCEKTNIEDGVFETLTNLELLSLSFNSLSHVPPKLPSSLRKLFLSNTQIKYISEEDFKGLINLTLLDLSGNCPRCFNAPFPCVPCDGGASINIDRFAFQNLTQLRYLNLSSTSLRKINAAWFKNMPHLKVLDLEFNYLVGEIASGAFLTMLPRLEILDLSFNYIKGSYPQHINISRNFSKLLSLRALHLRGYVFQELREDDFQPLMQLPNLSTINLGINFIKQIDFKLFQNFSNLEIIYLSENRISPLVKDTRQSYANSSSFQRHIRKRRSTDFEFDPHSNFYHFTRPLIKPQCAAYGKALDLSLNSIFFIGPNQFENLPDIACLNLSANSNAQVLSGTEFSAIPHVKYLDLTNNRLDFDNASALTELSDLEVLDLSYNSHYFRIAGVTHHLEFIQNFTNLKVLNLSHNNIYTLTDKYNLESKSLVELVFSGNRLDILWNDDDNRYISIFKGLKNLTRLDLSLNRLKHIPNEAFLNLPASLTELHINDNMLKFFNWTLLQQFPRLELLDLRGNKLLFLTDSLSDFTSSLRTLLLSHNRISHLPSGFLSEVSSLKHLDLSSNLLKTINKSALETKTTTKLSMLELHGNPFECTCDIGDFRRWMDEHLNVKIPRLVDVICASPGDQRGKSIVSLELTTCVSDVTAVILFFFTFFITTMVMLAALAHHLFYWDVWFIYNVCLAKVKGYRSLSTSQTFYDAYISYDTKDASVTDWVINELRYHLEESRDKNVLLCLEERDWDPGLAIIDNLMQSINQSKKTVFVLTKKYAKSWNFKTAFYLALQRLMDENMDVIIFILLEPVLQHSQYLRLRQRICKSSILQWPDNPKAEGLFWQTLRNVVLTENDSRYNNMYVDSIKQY
# Assay: huPBMC TLR8 Antagonist IL-6 TR-FRET Assay
# Type: cell-based
# Parameters: Fresh blood was collected from normal human donors; endogenous in cells; host or cells: human PBMCs from fresh donor blood
# Details: human PBMCs stimulated with ssRNA40 1 μg/ml (DOTAP), 14-16 hrs; IL-6 TR-FRET read-out
# How it was run: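 Human PBMCs from fresh donor blood (150,000 cells/well) stimulated 14–16 h at 37 °C with DOTAP-complexed ssRNA40 (final 1 μg/ml for TLR8, 10 μg/mL for TLR7) or ODN2216 (final 0.3 μM, TLR9), 0.25% DMSO, ten-point 1/3 compound dilutions. Supernatant IL-6 read by HTRF (TLR8); IFNα by IFNα2b AlphaLISA (TLR7/TLR9).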
row,SMILES,IC50 [nM]
1,"Cc1cc(N2CCc3c(c(C)nn3CC34CCC(N)(CC3)CC4)C2)c2cnn(C)c2n1 [Compound No. 1, 4-((5-(1,6-dimethyl-1H-pyrazolo[3,4-b]pyridin-4-yl)-3-methyl-4,5,6,7-tetrahydro-1H-pyrazolo[4,3-c]pyridin-1-yl)methyl)bicyclo[2.2.2]octan-1-amine]",236
2,"Cc1cc(N2CCc3c(c(C)nn3CC34CCC(N)(CC3)CC4)C2)c2cn[nH]c2n1 [Compound No. 2, 4-((3-methyl-5-(6-methyl-1H-pyrazolo[3,4-b]pyridin-4-yl)-4,5,6,7-tetrahydro-1H-pyrazolo[4,3-c]pyridin-1-yl)methyl)bicyclo[2.2.2]octan-1-amine]",> 10000
3,"Cc1cc(N2CCc3c(c(C)nn3CC34CCC(N(C)C(=O)OC(C)(C)C)(CC3)CC4)C2)c2cnn(C)c2n1 [Compound No. 49, tert-butyl (4-((5-(1,6-dimethyl-1H-pyrazolo[3,4-b]pyridin-4-yl)-3-methyl-4,5,6,7-tetrahydro-1H-pyrazolo[4,3-c]pyridin-1-yl)methyl)bicyclo[2.2.2]octan-1-yl)(methyl)carbamate]",> 10000
4,"CNC12CCC(Cn3nc(C)c4c3CCN(c3cc(C)nc5c3cnn5C)C4)(CC1)CC2 [Compound No. 50, 4-((5-(1,6-dimethyl-1H-pyrazolo[3,4-b]pyridin-4-yl)-3-methyl-4,5,6,7-tetrahydro-1H-pyrazolo[4,3-c]pyridin-1-yl)methyl)-N-methylbicyclo[2.2.2]octan-1-amine]",308
5,"Cc1cc(N2CCc3c(c(C)nn3CC34CCC(NC(=O)OC5(C)CC5)(CC3)CC4)C2)c2cnn(C)c2n1 [Compound No. 51, 1-methylcyclopropyl (4-((5-(1,6-dimethyl-1H-pyrazolo[3,4-b]pyridin-4-yl)-3-methyl-4,5,6,7-tetrahydro-1H-pyrazolo[4,3-c]pyridin-1-yl)methyl)bicyclo[2.2.2]octan-1-yl)carbamate]",> 10000
6,"COc1ccc(Cn2ncc3c(N4CCc5c(c(C)nn5CC56CCC(N)(CC5)CC6)C4)cc(C)nc32)cc1 [Compound No. 53, 4-((5-(1-(4-methoxybenzyl)-6-methyl-1H-pyrazolo[3,4-b]pyridin-4-yl)-3-methyl-4,5,6,7-tetrahydro-1H-pyrazolo[4,3-c]pyridin-1-yl)methyl)bicyclo[2.2.2]octan-1-amine]",1140
7,"Cc1cc(N2CCc3c(c(C)nn3CC34CCC(N(C)C5COC5)(CC3)CC4)C2)c2cnn(C)c2n1 [Compound No. 77, N-(4-((5-(1,6-dimethyl-1H-pyrazolo[3,4-b]pyridin-4-yl)-3-methyl-4,5,6,7-tetrahydro-1H-pyrazolo[4,3-c]pyridin-1-yl)methyl)bicyclo[2.2.2]octan-1-yl)-N-methyloxetan-3-amine]",316
8,"Cc1nn(CC23CCC(N)(CC2)CC3)c2c1CN(c1ccnc(-c3ccc(C#N)cc3)c1)CC2 [Compound No. 84, 4-(4-(1-((4-aminobicyclo[2.2.2]octan-1-yl)methyl)-3-methyl-6,7-dihydro-1H-pyrazolo[4,3-c]pyridin-5(4H)-yl)pyridin-2-yl)benzonitrile]",831
9,"Cc1cc(N2CCc3c(c(C)nn3CC34CCC(O)(CC3)CC4)C2)c2cnn(C)c2n1 [compound 46, 4-((5-(1,6-dimethyl-1H-pyrazolo[3,4-b]pyridin-4-yl)-3-methyl-4,5,6,7-tetrahydro-1H-pyrazolo[4,3-c]pyridin-1-yl)methyl)bicyclo[2.2.2]octan-1-ol]",> 10000
10,"Cc1cc(N2CCc3nn(CC45CC(N)(C4)C5)c(C)c3C2)c2cnn(C)c2n1 [compound 52, 3-((5-(1,6-dimethyl-1H-pyrazolo[3,4-b]pyridin-4-yl)-3-methyl-4,5,6,7-tetrahydro-2H-pyrazolo[4,3-c]pyridin-2-yl)methyl)bicyclo[1.1.1]pentan-1-amine]",> 10000
11,"Cc1cc(N2CCc3c(c(C)nn3CC34CCC(NC(C)C)(CC3)CC4)C2)c2cnn(C)c2n1 [compound 55, 4-((5-(1,6-dimethyl-1H-pyrazolo[3,4-b]pyridin-4-yl)-3-methyl-4,5,6,7-tetrahydro-1H-pyrazolo[4,3-c]pyridin-1-yl)methyl)-N-isopropylbicyclo[2.2.]octan-1-amine]",420
12,"Cc1cc(N2CCc3c(c(C)nn3CC34CCC(NC(C)CO)(CC3)CC4)C2)c2cnn(C)c2n1 (stereo not drawn) [compound 56, 2-((4-((5-(1,6-dimethyl-1H-pyrazolo[3,4-b]pyridin-4-yl)-3-methyl-4,5,6,7-tetrahydro-1H-pyrazolo[4,3-c]pyridin-1-yl)methyl)bicyclo[2.2.2]octan-1-yl)amino)propan-1-ol]",292
13,"Cc1cc(N2CCc3c(c(C)nn3CC34CCC(N5C[C@@H](O)[C@@H](O)C5)(CC3)CC4)C2)c2cnn(C)c2n1 [compound 74, (3S,4R)-1-(4-((5-(1,6-dimethyl-1H-pyrazolo[3,4-b]pyridin-4-yl)-3-methyl-4,5,6,7-tetrahydro-1H-pyrazolo[4,3-c]pyridin-1-yl)methyl)bicyclo[2.2.2]octan-1-yl)pyrrolidine-3,4-diol]",158

# Now those with a lower IC50, led by results:
row,IC50 [nM],SMILES
1,115,"Cc1cc(N2CCc3c(c(C)nn3CC34CCC(N5CCC5)(CC3)CC4)C2)c2cnn(C)c2n1 [compound 64, 1-((4-(azetidin-1-yl)bicyclo[2.2.2]octan-1-yl)methyl)-5-(1,6-dimethyl-1H-pyrazolo[3,4-b]pyridin-4-yl)-3-methyl-4,5,6,7-tetrahydro-1H-pyrazolo[4,3-c]pyridine]"
2,110,"CCNC12CCC(Cn3nc(C)c4c3CCN(c3cc(C)nc5c3cnn5C)C4)(CC1)CC2 [compound 57, 4-((5-(1,6-dimethyl-1H-pyrazolo[3,4-b]pyridin-4-yl)-3-methyl-4,5,6,7-tetrahydro-1H-pyrazolo[4,3-c]pyridin-1-yl)methyl)-N-ethylbicyclo[2.2.]octan-1-amine]"
3,102,"CCOCCN(CCOCC)C12CCC(Cn3nc(C)c4c3CCN(c3cc(C)nc5c3cnn5C)C4)(CC1)CC2 [compound 72, 4-((5-(1,6-dimethyl-1H-pyrazolo[3,4-b]pyridin-4-yl)-3-methyl-4,5,6,7-tetrahydro-1H-pyrazolo[4,3-c]pyridin-1-yl)methyl)-N,N-bis(2-ethoxyethyl)bicyclo[2.2.2]octan-1-amine]"
4,74,"Cc1cc(N2CCc3c(c(C)nn3CC34CCC(NC5CCC5)(CC3)CC4)C2)c2cnn(C)c2n1 [compound 54, N-cyclobutyl-4-((5-(1,6-dimethyl-1H-pyrazolo[3,4-b]pyridin-4-yl)-3-methyl-4,5,6,7-tetrahydro-1H-pyrazolo[4,3-c]pyridin-1-yl)methyl)bicyclo[2.2.2]octan-1-amine]"
5,53,"Cc1cc(N2CCc3c(c(C)nn3CC34CCC(N5CCCC5)(CC3)CC4)C2)c2cnn(C)c2n1 [Compound No. 58, 5-(1,6-dimethyl-1H-pyrazolo[3,4-b]pyridin-4-yl)-3-methyl-1-((4-(pyrrolidin-1-yl)bicyclo[2.2.2]octan-1-yl)methyl)-4,5,6,7-tetrahydro-1H-pyrazolo[4,3-c]pyridine]"
6,52,"Cc1cc(N2CCc3c(c(C)nn3CC34CCC(N5CCOCC5)(CC3)CC4)C2)c2cnn(C)c2n1 [Compound No. 59, 4-(4-((5-(1,6-dimethyl-1H-pyrazolo[3,4-b]pyridin-4-yl)-3-methyl-4,5,6,7-tetrahydro-1H-pyrazolo[4,3-c]pyridin-1-yl)methyl)bicyclo[2.2.2]octan-1-yl)morpholine]"
7,31,"COCCNC12CCC(Cn3nc(C)c4c3CCN(c3cc(C)nc5c3cnn5C)C4)(CC1)CC2 [Compound No. 69, 4-((5-(1,6-dimethyl-1H-pyrazolo[3,4-b]pyridin-4-yl)-3-methyl-4,5,6,7-tetrahydro-1H-pyrazolo[4,3-c]pyridin-1-yl)methyl)-N-(2-methoxyethyl)bicyclo[2.2.2]octan-1-amine]"
8,14,"CCOCCNC12CCC(Cn3nc(C)c4c3CCN(c3cc(C)nc5c3cnn5C)C4)(CC1)CC2 [compound 71, 4-((5-(1,6-dimethyl-1H-pyrazolo[3,4-b]pyridin-4-yl)-3-methyl-4,5,6,7-tetrahydro-1H-pyrazolo[4,3-c]pyridin-1-yl)methyl)-N-(2-ethoxyethyl)bicyclo[2.2.2]octan-1-amine]"
